Test results: patent US20050137239A1, “Thiazole derivatives” (priority 2003, published 2005)

Assays:
[1] = test system: AGE formation; assay: AGE formation inhibition: protein and sugar incubated at 37° C., gel formation; details: control tube forms a gel
Protocol: This example describes the efficacy of a compound of the invention for inhibiting AGE formation.
A control tube, containing protein and sugar, forms a gel with little or no remaining liquid when incubated at 37° C. Such a gel is indicative of extensive crosslinking associated with glycation.

[2] = test system: cross-links representative of AGEs; assay: AGE crosslink breaking, sandwich enzyme-linked immunoabsorbent assay; details: pre-formed protein-sugar cross-links in multi-well plates; buffer control
Protocol: This example describes the efficacy of a compound of the invention for breaking crosslinks associated with AGEs using a sandwich enzyme-linked immunoabsorbent assay.
A mixture of protein and sugar was incubated to form cross-links representative of AGEs and was placed in multi-well plates. The plates were then treated with either 2-amino-4,5-dimethylthiazole HCl or buffer. After treatment, the plates were rinsed to remove any free protein liberated by cross-link breakage. An antibody reactive to the protein was then added to the plates to provide quantitative levels of protein within the plate.

[3] = molecular target: T1, glucose oxidase (Aspergillus niger, UniProt P13006); assay: glucose oxidase inhibition, commercially available glucose oxidase kit; type: biochemical
T1 construct: purchased
T1 sequence (P13006 17-605, species assumed): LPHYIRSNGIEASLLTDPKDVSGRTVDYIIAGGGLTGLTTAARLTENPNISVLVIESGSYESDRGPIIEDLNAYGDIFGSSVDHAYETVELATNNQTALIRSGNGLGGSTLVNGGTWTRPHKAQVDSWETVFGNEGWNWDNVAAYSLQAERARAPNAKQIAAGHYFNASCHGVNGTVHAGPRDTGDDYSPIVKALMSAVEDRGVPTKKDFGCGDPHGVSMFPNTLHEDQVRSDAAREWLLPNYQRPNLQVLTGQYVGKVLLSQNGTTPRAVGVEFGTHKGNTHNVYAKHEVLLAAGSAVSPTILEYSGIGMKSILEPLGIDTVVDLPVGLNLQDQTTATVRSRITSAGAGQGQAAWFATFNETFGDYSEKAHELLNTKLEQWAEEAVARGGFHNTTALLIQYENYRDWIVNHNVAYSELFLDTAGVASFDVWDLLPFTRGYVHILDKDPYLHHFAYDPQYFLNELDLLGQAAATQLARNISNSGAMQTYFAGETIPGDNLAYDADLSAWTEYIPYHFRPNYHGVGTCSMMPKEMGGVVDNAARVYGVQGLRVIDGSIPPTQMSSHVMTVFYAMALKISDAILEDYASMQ
Source text: This example describes the effectiveness of a compound of the invention for inhibiting the enzyme glucose oxidase.
To test the efficacy of 2-amino-4,5-dimethylthiazole HCl for the inhibition of glucose oxidase, a commercially available glucose oxidase kit was used.

Structure (SMILES): Cc1nc(N)sc1C.Cl [2-amino-4,5-dimethylthiazole HCl, 2-amino-4,5-dimethylthiazole hydrochloride]
- state of protein and sugar mixture (gel indicates crosslinking associated with glycation) [1]: remained liquid
- antibody bound in the plate as compared to the control plate [2]: less antibody bound
- reduction of production of H2O2 as compared to a control sample [3]: greater than 60%
